In patent publication US9084798B2, “Use of lanostane and Poria extract in treating diabetes” (Sinphar Tian-Li Pharmaceutical Co., Ltd (Hangzhou), priority 2009, dated 2015):

Experiments:
3T3-L1 adipocytes [1] = test: 2-deoxy-glucose uptake in differentiated mature 3T3-L1 adipocytes; assay type: cell-based, rodent
Procedure: (§1) 3T3-L1 preadipocytes were cultured in Dulbecco's minimal essential medium (DMEM) supplemented with 100 IU/mL penicillin, 100 µg/mL streptomycin, 1% nonessential amino acid and 10% calf serum in 5% CO2 and 95% Air at 37° C. Once the cells have become fully grown, differentiation was induced by treating the cells with differentiation inducers (DMEM containing 0.5 mM 3-isobutyl-1-methylxanthane (IBMX), 1 µM dexamethasone, […], and 10% fetal bovine serum) for two days. The cells were re-fed with DMEM supplemented with 10 µg/mL insulin and 10% FBS for another two days, and then changed to 10% FBS/DMEM without insulin every 2 days for 4-6 days. At this stage, near 90% of the cells expressed the adipocyte phenotype and were ready for the experiments. Before commencing the experiments, the 3T3-L1 cells were rinsed with PBS solution first, and then cultured overnight in the serum-free and insulin-free 0.2% BSA/DMEM culture medium, so as to remove interferences from both serum and insulin.
For the experiment of testing the effects of triterpene compounds on enhancing glucose uptake by 3T3-L1 adipocytes, 3T3-L1 preadipocytes were cultured on 6-well culture dishes, and allowed to grow fully therein before being subjected to differentiation by a differentiation-inducing agent. Once the 3T3-L1 cells became matured and differentiated into adipocytes after 7-12 days, the cells were used for testing glucose uptake. Said adipocytes were firstly placed in a serum-free culture medium (0.2% BSA/DMEM) overnight, followed by cultivation for 2-6 hours in serum-free cell culture media containing different concentrations of triterpene compounds, and then rinsed once with PBS solution before undergoing cultivation in KRP buffer (20 mM HEPES, 137 mM NaCl, 4.7 mM KCl, 1.2 mM MgSO4, 1.2 mM KH2PO4, 2.5 mM CaCl2, and 2 mM pyruvate, pH 7.4 and 0.2% BSA) at 37° C. for 3 hours. Finally, 0.2 μCi/mL of 2-deoxy-D-[^14C]-glucose (2-DG, Amersham Biosciences, Little Chalfont, Bucks, U.K) and 0.2 ml of non-radioactive glucose buffer derived from 0.1 mM 2-DG were used as a substitute for KRP buffer in order to begin the experiment on glucose uptake. After allowing the experiment to run for […], the cells were removed and rinsed with PBS solution to terminate the intake of glucose. Subsequently, the cells were dissolved in 0.2 ml of 0.2% SDS, and 10 μL, of the solution with dissolved cells was transferred into UniFilter plates (Perkim-Elmer, Wellesley, Mass., USA) with filtering bases and dried in a vacuum oven at 37° C., in which each well was added with 30 μL of counting solution, and then analyzed by using a micro-disk liquid scintillation analyzer (TopCount, Packard NXT, Packard BioScience Company, Meriden, Conn., USA). The glucose concentration accumulated in the cells was calculated, and divided by the protein concentration, so as to obtain a glucose uptake rate indicated as nanomoles of glucose uptake in every microgram of cell proteins at every minute (nmol/min/mg). The protein concentration was determined by using the standard Bicinchoninic acid (BCA) protein assay kit (Pierce, Rockford, Ill., USA). The uptake of non-specific glucose was determined by adding 0.2 μCi of L-[14C]-glucose, and then used to substract from the value obtained by the analyzer so as to get a value for the uptake of specific glucose. Therefore, the effects of different concentrations of triterpene compounds on the glucose uptake by 3T3-L1 adipocytes could be determined.

3T3-L1 preadipocytes = test: 2-deoxy-glucose uptake in 3T3-L1 preadipocytes; assay type: cell-based, rodent
Procedure: as §1, with “Before commencing the experiments, the 3T3-L1 cells were rinsed with PBS solution first, and then cultured overnight in the serum-free and insulin-free 0.2% BSA/DMEM culture medium, so as to remove interferences from both serum and insulin.” left out
For the experiment of testing the effects of triterpene compounds on enhancing glucose uptake by 3T3-L1 adipocytes, 3T3-L1 preadipocytes were cultured on 6-well culture dishes, and allowed to grow fully therein before being subjected to differentiation by a differentiation-inducing agent. […] The glucose concentration accumulated in the cells was calculated, and divided by the protein concentration, so as to obtain a glucose uptake rate indicated as nanomoles of glucose uptake in every microgram of cell proteins at every minute (nmol/min/mg). […]

[2] = test system: 3T3-L1 adipocytes with suppressed GLUT4 expression (shG4-30); test: glucose uptake in adipocytes with suppressed mRNA expression of GLUT4 (shG4-30); assay type: cell-based, rodent; conditions: different doses of PA
From the text: A viral carrier (TRCN0000043630 shRNA, Genomics Research Center, Academia Sinica, R.O.C.) carrying GLUT4-inhibiting RNA was used to infect the 3T3-L1 preadipocytes (shG4-30), in order to create a gene expression having consistent inhibition of GLUT4 expression, and the cell strain was allowed to further differentiate, from which the differentiated adipocytes were used for the experiments.
For the experiment of testing the effects of triterpene compounds on enhancing glucose uptake by 3T3-L1 adipocytes, 3T3-L1 preadipocytes were cultured on 6-well culture dishes, and allowed to grow fully therein before being subjected to differentiation by a differentiation-inducing agent. […] Subsequently, the cells were dissolved in 0.2 ml of 0.2% SDS, and 10 μL, of the solution with dissolved cells was transferred into UniFilter plates (Perkim-Elmer, Wellesley, Mass., USA) with filtering bases and dried in a vacuum oven at 37° C., in which each well was added with 30 μL of counting solution, and then analyzed by using a micro-disk liquid scintillation analyzer (TopCount, Packard NXT, Packard BioScience Company, Meriden, Conn., USA). The glucose concentration accumulated in the cells was calculated, and divided by the protein concentration, so as to obtain a glucose uptake rate indicated as nanomoles of glucose uptake in every microgram of cell proteins at every minute (nmol/min/mg). […]

GLUT4 [3] = test: GLUT4 protein expression by Western blot in 3T3-L1 adipocytes; assay type: cell-based, rodent; conditions: different doses of PA for 24 hours
Procedure: For the experiment of testing the effects of triterpene compounds on enhancing the GLUT protein expression in 3T3-L1 adipocytes, the aforesaid differentiated and mature 3T3-L1 adipocytes were cultured overnight in a serum-free cell culture medium, and then further cultured in serum-free cell culture media containing different concentrations of triterpene compounds for 24 hours. This was followed by rinsing the cells with PBS solution, and allowing the cells to lyse in 0.2 mL lysis buffer (1% NP-40, 150 mM NaCl, 0.1% SDS, 50 mM Tris-HCl pH 7.6, 10 mM EDTA, 0.5% deoxycholate, 1 mM PMSF, 1 mM Na3VO4, 10 mM NaF, 10 mM β-glycerophosphate, 10 g/mL protease inhibitor and phosphotase inhibitor cocktails) for 30 min at 4° C. An equal amount of protein from each sample was separated by sodium dodecyl sulfate (SDS)-10% polyacrylamide gel electrophoresis (PAGE) and transblotted onto polyvinylidene difluoride (PVDF) membranes (Millipore, Bedford, Mass., USA). […] Each sample of proteins was treated with a chemiluminescence kit (ECL, Amersham, U.K.) before being exposed and processed into X-ray film, and then quantitatively analyzed by using computer software.

GLUT4 [4] = test: GLUT4 mRNA expression by real-time Q-PCR in 3T3-L1 adipocytes; assay type: cell-based, rodent; conditions: 1 μM of PA, 24 hours
Procedure: Real-time Q-PCR was performed in order to evaluate mRNA expression of GLUT proteins in 3T3-L1 adipocytes under different concentrations of triterpene compounds. Firstly, the fully differentiated 3T3-L1 adipocytes were mixed with different concentrations of triterpene compounds and left for 24 hours, before removing the cell culture medium and using the Trizol buffer (Invitrogen, Irvine, Calif., USA) to obtain total RNA from the cells. Afterwards, 1 μg of RNA sample was taken therefrom, and a High-Capacity cDNA Reverse Transcription Kit (Applied Biosystems, Darmstadt, Germany) was used to reverse transcribe mRNA in the sample into cDNA. Primers were specifically designed for GLUT1, GLUT4, and β-actin, and the SYBR Green Q-PCR analyzer (Applied Biosystems, Foster City, Calif., USA) was used to expand the gene for detection (Glut1 & 4) and reference gene (β-actin), before relative gene expression values were calculated by the ΔΔCT method using the StepOne v2.0 software (Applied Biosystems).

GLUT4 [5] = test: GLUT4 translocation to plasma membrane, centrifugation fractions and Western blot; assay type: cell-based, rodent; conditions: 2 hours
Procedure: In the mechanism of insulin enhancing glucose uptake by adipocytes or muscle cells, the translocation of GLUT4 from intracellular organelles to plasma membrane (PM) actually plays a vital rol therein, thus the effects of triterpene compounds on enhancing the translocation of GLUT4 to plasma membrane in 3T3-L1 adipocytes were tested here. The differentiated and mature 3T3-L1 adipocytes were cultured overnight in a serum-free cell culture medium, and then further cultured in serum-free cell culture media containing different concentrations of triterpene compounds for 2 hours. This was followed by high-speed centrifugation at different rotation speeds (16,000 g-200,000 g) in order to separate the cellular plasma membrane fraction from the low density microsome (LDM) [Liu, L. Z. et. al.; Mol. Biol. Cell 17, (5), 2322-2330, 2006]. Western blot analysis was performed by using a monoclonal antibody for GLUT4, so as to observe whether there are any effects from different concentrations of triterpene compounds on the translocation of GLUT4 from cellular LDM to PM in 3T3-L1 adipocytes.

HA-GLUT4-GFP = test: GLUT4 translocation to plasma membrane, HA-GLUT4-GFP fluorescence ratio; assay type: cell-based, rodent; conditions: 1.0 μM of PA, 2 hours; rhodamine/GFP fluorescence ratio
3T3-L1 adipocytes [6] = test: accumulation of triglycerides in 3T3-L1 adipocytes (Oil-Red O staining); assay type: cell-based, rodent; conditions: 24 hours after administering different doses of PA
Procedure: (§2) For the experiment of testing the effects of triterpene compounds on the accumulation of triglycerides and the release of glycerol in 3T3-L1 adipocytes, the differentiated and mature 3T3-L1 adipocytes were cultivated overnight in a serum-free cell culture medium, and then further cultivated in serum-free cell culture media containing different concentrations of triterpene compounds for 24 hours. The culture media were collected and tested for the release of glycerol by using a glycerol assay kit (Randox Laboratories, Antrim, UK), to determine whether different concentrations of triterpene compounds had any effects on the release of glycerol from lipid breakdown in 3T3-L1 adipocytes. The level of triglycerides in the adipocytes were determined by Oil-Red O staining (Ramirez-Zacarias, J. L. et. al.; Histochemistry 97, (6), 493-497, 1992). The oil droplets formed by the accumulation of lipids in the cells were stained, rinsed twice with 60% isopropanol, and then extracted in 100% isopropanol before being quantified at the absorbance of 490 nm. The readings were compared with that from the adipocytes without being given triterpene compounds, in order to evaluate the effects of different concentrations of triterpene compounds on the accumulation of triglycerides in the adipocytes.

3T3-L1 adipocytes [7] = test: release of glycerol from 3T3-L1 adipocytes (glycerol assay kit); assay type: cell-based, rodent; conditions: 24 hours after administering different doses of PA
Procedure: as §2

in vitro adipocytes = conditions: cited from earlier work
mice = conditions: cited from earlier work
[8] = 0.01 μM, two hours after giving the compound, versus untreated control

## O=C(CCc1ccc(O)cc1)c1c(O)cc(O)cc1O [phloretin (PT), phloretin, reference compound]
3T3-L1 adipocytes [1]; adipocytes
  glucose uptake after phloretin (FIG. 4): significantly inhibited
3T3-L1 preadipocytes
  glucose uptake after phloretin (FIG. 4): significantly inhibited

## C=C(CC[C@@H](C(=O)O)[C@H]1[C@H](O)C[C@@]2(C)C3=C(CC[C@]12C)[C@@]1(C)CC[C@H](OC(C)=O)C(C)(C)[C@@H]1CC3)C(C)C [PA, pachymic acid]
3T3-L1 adipocytes [1]; [8]
  glucose uptake increased to: 165.89%
3T3-L1 adipocytes [1]; PA at 1 μM, acting two hours
  glucose uptake increased to: 209.84%
3T3-L1 adipocytes [1]; differentiated adipocytes
  enhancement of glucose uptake (FIG. 4): only effective for enhancing glucose uptake in differentiated adipocytes
3T3-L1 preadipocytes
  enhancement of glucose uptake (FIG. 4): not for preadipocytes
[2]
  glucose uptake in adipocytes with low expression of GLUT4 (FIG. 7B): did not greatly enhance the glucose uptake
GLUT4 [3]
  protein expression of GLUT4 (FIG. 5): effective for enhancing the protein expression of GLUT4
GLUT4 [4]
  gene expression of GLUT4 elevated to (FIG. 6): 228%
GLUT4 [5]; 0.01 μM of PA
  amount of GLUT4 in the plasma membrane increased to (FIG. 8A): 141%
GLUT4 [5]; 1 μM of PA
  amount of GLUT4 in the plasma membrane increased to (FIG. 8A): 328%
HA-GLUT4-GFP
  translocation of GLUT4 to plasma membrane elevated (FIG. 8B): 2.71 fold
3T3-L1 adipocytes [6]
  accumulation of triglycerides (FIG. 9): exceeded 137%
3T3-L1 adipocytes [7]
  release of glycerol lowered to: approximately 70 % of the original level

## CC(C)=CCC[C@@H](C(=O)O)[C@H]1CC[C@@]2(C)C3=CC[C@H]4C(C)(C)[C@@H](O)CC[C@]4(C)C3=CC[C@]12C [dehydrotrametenolic acid]
In vitro adipocytes
  effective concentration: 10^−5 M
mice; mice
  effective dose: 110 mg/kg
mice; researchers' conclusion from the mouse dose
  effective dose for use in the human body: more than 700 mg

## C=C(CC[C@@H](C(=O)O)[C@H]1[C@H](O)C[C@@]2(C)C3=CC[C@H]4C(C)(C)C(=O)CC[C@]4(C)C3=CC[C@]12C)C(C)C [PPA, polyporenic acid C]
3T3-L1 adipocytes [1]; [8]
  glucose uptake increased to: 147.9%

## C=C(CC[C@@H](C(=O)O)[C@H]1[C@H](O)C[C@@]2(C)C3=C(CC[C@]12C)[C@@]1(C)CC[C@H](O)C(C)(C)[C@@H]1CC3)C(C)C [TA, tumulosic acid]
3T3-L1 adipocytes [1]; [8]
  glucose uptake increased to: 142.5%

## insulin [reference compound]
3T3-L1 adipocytes [1]; 100 nM insulin
  effect on glucose uptake: effective for increasing glucose uptake
